Blank lines part the entries; values can stand above or below the molecule they belong to.
Legend:
Type in all cases: cell-based
[1] = molecular target: T1, endothelial nitric oxide synthase (eNOS) (Homo sapiens, UniProt P29474); experiment: NO (DAF-FM) and ROS production in HUVECs at […] L-NAME
T1 construct: gene NOS3
T1 sequence (P29474 2-1203): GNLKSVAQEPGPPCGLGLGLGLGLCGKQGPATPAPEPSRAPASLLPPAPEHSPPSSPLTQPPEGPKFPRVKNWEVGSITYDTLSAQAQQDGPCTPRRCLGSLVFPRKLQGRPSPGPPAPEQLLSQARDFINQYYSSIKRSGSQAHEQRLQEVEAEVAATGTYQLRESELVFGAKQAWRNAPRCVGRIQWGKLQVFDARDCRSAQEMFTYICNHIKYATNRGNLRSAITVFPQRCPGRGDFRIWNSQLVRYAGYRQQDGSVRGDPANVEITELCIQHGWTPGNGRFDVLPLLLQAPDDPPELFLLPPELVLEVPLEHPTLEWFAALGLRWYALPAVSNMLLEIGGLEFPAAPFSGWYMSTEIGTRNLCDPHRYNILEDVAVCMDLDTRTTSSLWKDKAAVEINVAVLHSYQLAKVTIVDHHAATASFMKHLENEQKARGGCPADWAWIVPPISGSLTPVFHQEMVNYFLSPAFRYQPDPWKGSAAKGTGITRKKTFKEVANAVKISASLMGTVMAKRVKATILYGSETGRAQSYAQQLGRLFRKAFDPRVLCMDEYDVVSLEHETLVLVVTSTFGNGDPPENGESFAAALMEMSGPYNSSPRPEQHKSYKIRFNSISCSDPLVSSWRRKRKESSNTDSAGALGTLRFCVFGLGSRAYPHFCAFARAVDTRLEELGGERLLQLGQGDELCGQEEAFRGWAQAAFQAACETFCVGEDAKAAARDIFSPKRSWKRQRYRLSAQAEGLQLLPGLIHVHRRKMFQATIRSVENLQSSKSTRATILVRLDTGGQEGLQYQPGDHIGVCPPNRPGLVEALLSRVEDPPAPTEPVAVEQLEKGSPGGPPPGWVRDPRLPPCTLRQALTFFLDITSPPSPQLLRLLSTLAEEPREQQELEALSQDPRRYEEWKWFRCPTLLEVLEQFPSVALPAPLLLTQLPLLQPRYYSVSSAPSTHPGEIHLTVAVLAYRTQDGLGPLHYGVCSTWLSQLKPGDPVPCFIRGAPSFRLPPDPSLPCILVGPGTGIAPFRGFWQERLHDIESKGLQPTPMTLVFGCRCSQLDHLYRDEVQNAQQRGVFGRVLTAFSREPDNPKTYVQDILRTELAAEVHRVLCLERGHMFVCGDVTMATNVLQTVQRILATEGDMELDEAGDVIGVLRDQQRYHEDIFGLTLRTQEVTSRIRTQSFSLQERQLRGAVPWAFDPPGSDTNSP

[2] = molecular target: T1, endothelial nitric oxide synthase (eNOS); experiment: conversion of deuterated L-arginine to L-citrulline in HUVECs by MS; […] L-arginine rescues NO production
[3] = molecular target: T1, endothelial nitric oxide synthase (eNOS); experiment: NO production (DAF-FM) in HUVECs with L-arginine competition; deuterated L-arginine to L-citrulline conversion by MS

SMILES: COC(=O)[C@@H](N)CCCNC(N)=N[N+](=O)[O-] [L-NAME]
- NO (DAF-FM) and ROS production in HUVECs at 1 mM L-NAME [1]: NO production is indeed eNOS-dependent, as proven by the eNOS inhibitor L-NAME, whose presence strongly abolishes NO production

SMILES: N=C(N)NCCC[C@H](N)C(=O)O [L-arginine]
- conversion of deuterated L-arginine to L-citrulline in HUVECs by MS; 20 mM L-arg [2]: we measured the rate of L-arginine’s conversion to L-citrulline by using stable isotope labeling and mass spectrometry

- EC50 [3]: 2.5 ± 0.3 µM
SMILES: C[N+](C)(C)[O-] [Trimethylamine N-oxide]

Source: PMC12108457, “Trimethylamine N-Oxide (TMAO) Acts as Inhibitor of Endothelial Nitric Oxide Synthase (eNOS) and Hampers NO Production and Acetylcholine-Mediated Vasorelaxation in Rat Aortas” (Antioxidants, 2025)
